{"source": "patent US20080193958A1", "about": "“Method for the High-Speed Detection and/or Measurement of a Lipase or Phospholipase Activity” (CENTRE NATIONAL DE LA RECHERCHE SCIENTIFIQUE, priority 2005, published 2008)", "key": {"[1]": {"target": "T1, human pancreatic lipase (HPL) (Homo sapiens, UniProt P16233)", "T1 sequence (P16233 17-465)": "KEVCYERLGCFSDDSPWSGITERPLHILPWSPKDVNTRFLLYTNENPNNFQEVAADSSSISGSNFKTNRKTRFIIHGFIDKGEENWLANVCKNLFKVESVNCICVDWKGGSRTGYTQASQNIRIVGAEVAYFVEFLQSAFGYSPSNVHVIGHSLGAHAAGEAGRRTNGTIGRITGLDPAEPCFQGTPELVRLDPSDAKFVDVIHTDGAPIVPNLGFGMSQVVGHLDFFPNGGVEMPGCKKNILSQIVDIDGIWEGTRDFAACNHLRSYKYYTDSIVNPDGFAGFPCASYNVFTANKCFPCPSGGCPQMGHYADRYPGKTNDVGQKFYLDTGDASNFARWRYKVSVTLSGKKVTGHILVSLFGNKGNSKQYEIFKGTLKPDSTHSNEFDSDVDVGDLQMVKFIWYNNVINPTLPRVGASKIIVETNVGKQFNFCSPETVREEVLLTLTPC", "experiment": "Inhibition of human pancreatic lipase pre-incubated with THL, coated tung oil triglyceride microplate (method A)", "type": "biochemical", "conditions": "OD at 272 nm", "description": "FIGS. 4A and 4B represent the inhibition kinetics of HPL (human pancreatic lipase) by THL (tetrahydrolipstatin). The microplate is prepared by “coating” with triglycerides (50 μg/well) extracted from tung oil which contains a high proportion of a-eleostearic acid. A solution (200 μl) of Tris buffer is added to the wells. The activity of the HPL alone, or pre-incubated with the THL, is measured by recording the optical density (method A; FIG. 4A). FIG. 4A represents the optical density (OD) at 272 nm as a function of time. The curve with the black circles corresponds to the lipase HPL alone; the curve with the black squares corresponds to the lipase HPL pre-incubated with THL in a ratio of 1:100 and the curve with the white circles corresponds to the lipase HPL pre-incubated with THL in a ratio of 1:50. The microtitration plates, with “coating” of the lipid substrate, are prepared as has been described above. A solution constituted by Tris buffer and β-cyclodextrin (3 mg/ml) is added into the wells. The optical density at 270 nm is recorded as a function of time for 5 to 10 min (see FIGS. 4A and 4B). A solution of human pancreatic lipase (HPL), alone or pre-incubated with THL (inhibitor), is injected into the wells. The enzymatic activity is then recorded as a function of time by measurement of the OD at 272 nm (method A; FIG. 4A). […]"}, "[2]": {"target": "T1, human pancreatic lipase (HPL)", "experiment": "Inhibition of human pancreatic lipase by THL injected during lipolysis, coated microplate (method B)", "type": "biochemical", "conditions": "THL 10 nM final injected during lipolysis, HPL 2 nM final", "description": "FIG. 4B corresponds to a different protocol (method B): after the injection of HPL (at a final concentration of 2 nM), THL is injected into the reaction medium (at a final concentration of 10 nM) during lipolysis. The microtitration plates, with “coating” of the lipid substrate, are prepared as has been described above. A solution constituted by Tris buffer and β-cyclodextrin (3 mg/ml) is added into the wells. The optical density at 270 nm is recorded as a function of time for 5 to 10 min (see FIGS. 4A and 4B). A solution of human pancreatic lipase (HPL), alone or pre-incubated with THL (inhibitor), is injected into the wells. The enzymatic activity is then recorded as a function of time by measurement of the OD at 272 nm (method A; FIG. 4A). The pre-incubation of HPL with THL, at a molar excess of 1 to 100 or of 1 to 50 for 10 min, reduces the initial lipase activity by 75% or 40% respectively (see FIG. 4A). The effect of THL on the lipase activity has also been measured by injecting THL during lipolysis (method B; FIG. 4B). The injection of THL (at a final concentration of 10 nM) reduces the activity of HPL by approximately 40%."}}}
{"smiles": "CCCCCCCCCCC[C@@H](C[C@@H]1OC(=O)[C@H]1CCCCCC)OC(=O)[C@H](CC(C)C)NC=O", "note": "[THL, Tetrahydrolipstatin]", "values": [{"measurement": "reduction of the initial lipase activity", "setting": "[1]; HPL pre-incubated with THL at a molar excess of 1 to 50 for 10 min", "result": 40, "unit": "%"}, {"measurement": "reduction of the initial lipase activity", "setting": "[1]; HPL pre-incubated with THL at a molar excess of 1 to 100 for 10 min", "result": 75, "unit": "%"}, {"measurement": "reduction of the activity of HPL", "setting": "[2]", "result": "approximately 40%"}]}
